Patent US20050221328A1, “Inhibitors of inflammatory gene activity and cholesterol biosynthesis” (Wyeth, priority 2002, published 2005)

Legend:
HepG2 cells = assay: Gene expression in HepG2 cells treated 24 hr with CDCA or GW 4064; type: cell-based, human
Procedure: HepG2 cells were maintained in growth media at 37° C. in a 5% CO2 incubator. The cells were seeded in deficient growth media (phenol red free DMEM (Gibco BRL) supplemented with heat-inactivated 10% FBS, 1% Glutamax, 1% MEM non-essential amino acids, 100 U/ml penicillin and 100 μg/ml streptomycin) at 4-5×10^5 cells per well in a 6 well dish (Falcon). The cells were then placed into serum deficient media for 24 hr before addition of the compounds for an additional 24 hrs. The cells were then harvested for RNA analysis.
To further investigate the possibility that bile acid signaling through FXR can promote inflammatory gene expression, experiments were conducted in the hepatocyte cell line, HepG2. […] HepG2 cells express a number of inflammatory genes including ICAM-1 and M-CSF constitutively (Stonans et al '99 Cytokine 11:151). […] As positive controls, the induction of SHP mRNA and the repression of cyp7a were confirmed.
Referring to FIG. 24a-b, HepG2 cells were treated for 24 hr with increasing concentrations of chenodeoxycholic acid (CDCA). […] Data are reported as mean±SEM for each group. C57BL/6 mice. […] Data are reported as mean±SEM for each group.

human ICAM-1 promoter = assay: ICAM-1 promoter luciferase reporter in HepG2 cells transfected with human FXR and RXRα; type: cell-based; settings: HepG2 transfections, GW 4064 1 uM, 24 or 48 hr; required proximal NF-κB response element
From the text: Referring to FIG. 26, HepG2 cells were transfected with the human FXR and RXRα expression plasmid and luciferase reporter plasmids containing the proximal promoter region of the human SHP (−360 to +40) or sequential deletions of the human ICAM-1 promoter (−1108 or −810 to +18). […] Data represent the mean+S.D. of three independent transfections.

ICAM-1 = assay: Hepatic mRNA levels after single oral dose of GW 4064 in C57BL/6 mice; type: in vivo, mouse; settings: single oral dose 50 mg/kg, hepatic mRNA (FIG. 25)
[1] = HepG2, 24 hr, CDCA 1-100 uM or GW 4064 1-1000 nM

EC50 observed for ICAM-induction vs cited FXR EC50 (HepG2 cells; HepG2): comparable
cyp7a expression (HepG2 cells; HepG2, 24 hr, positive control): repression
Compound: CC(C)c1onc(-c2c(Cl)cccc2Cl)c1COc1ccc(/C=C/c2cccc(C(=O)O)c2)c(Cl)c1 [GW 4064]
ICAM-1 expression (HepG2 cells; [1]): induced in a dose dependent manner
M-CSF expression (HepG2 cells; [1]): induced in a dose dependent manner
SHP mRNA (HepG2 cells; HepG2, 24 hr, positive control): induction
ICAM-1 promoter activity (human ICAM-1 promoter): stimulated
ICAM-1 expression in vivo (ICAM-1): induces
